The text below walks through data of ChEMBL document CHEMBL1201862, “PubChem BioAssay data set” (2004).

Usually EC50 stands for the concentration needed to bring the measured effect to its halfway point.

A short description of test [1]: inhibitors of intracellular T. cruzi replication, confirmation, NIH3T3 host cells, beta-gal luminescence (AID 2044).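 Further: intracellular parasites grown in NIH/3T3 mouse fibroblasts as host cells; luminescent beta-galactosidase reporter signal from transgenic T. cruzi replicating inside host cells; inhibitors lower the luminescence signal.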 It counts as functional, cell-based.
Test [2] can be described thus: cytotoxicity toward NIH3T3 fibroblasts, dose response, counter-screen, cell-based, ATP luminescence, mouse fibroblasts (AID 2010).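 Further: cells exposed to compound for about 90 hours before reading.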 In kind it is functional.

Calls of active or inactive are those of the source. No stated cut-off is given here; in the data, actives have a measured EC50 and inactives only a lower limit.

Turning to `CCc1ccc(-n2nnnc2SCC(=O)Nc2ccc(NC(C)=O)cc2)cc1`, the EC50 in test [1] is 2.19 µM (active); in test [2], > 60 µM (not active).

For `COC(=O)c1cc2c(ccn2-c2ccc(F)cc2)n1Cc1ccc(OC(C)=O)cc1`, the EC50 in test [1] is 2.84 µM (active); in test [2], > 60 µM (not active).

Turning to `Cc1cccc2cc(CN(Cc3cccnc3)C(=O)c3ccccc3F)c(Cl)nc12`, the EC50 in test [1] was 0.204 µM (active); in test [2], > 60 µM (not active).

With `COc1ccc(OC)c(CN2CCN(C(=O)CCNC(=O)c3ccc(Br)cc3)CC2)c1`, the EC50 is 0.563 µM (active) in test [1] and > 60 µM (not active) in test [2].

For `O=C(Nc1ccncc1)Nc1cc(Cl)ccc1Cl`, the half-maximal effective concentration (EC50) was 0.469 µM (active) in test [1] and > 30 µM (not active) in test [2].

On to `Cc1ccc(S(=O)(=O)c2nc(NCc3ccc4c(c3)OCO4)sc2Cl)cc1`, for which the results for the EC50 in test [1] and in test [2] were 0.39 µM (active) and > 60 µM (not active), respectively.

On to `COc1ccc(CN2CCN(Cc3nc4ccccc4s3)CC2CCO)c(C)c1C` (stereo unspecified), for which the EC50 in test [1] is 0.132 µM (active); in test [2], > 60 µM (inconclusive).

For the molecule `Cc1onc(-c2ccccc2)c1CNC(=O)Nc1ccc(C(F)(F)F)cc1`, the EC50 was 4.33 µM (active) in test [1] and > 60 µM (not active) in test [2].

Take `O=[N+]([O-])c1ccc2[nH]c(-[n+]3c(-c4ccccc4)cc(-c4ccccc4)cc3-c3ccccc3)nc2c1`: the EC50 is 1.18 µM (active) in test [1] and > 60 µM (not active) in test [2].

Turning to `CC(C)CN(C(=O)c1cc([N+](=O)[O-])cc([N+](=O)[O-])c1)C1CCS(=O)(=O)C1` (stereo unspecified), the EC50 was 1.31 µM (active) in test [1] and > 30 µM (not active) in test [2].

As to `COC(=O)c1[nH]c2ccccc2c1NC(=O)CN1CCCc2ccccc21`, the EC50 in test [1] is 0.89 µM (active); in test [2], > 60 µM (not active).

Take `O=C(C1=C[C@@H](c2csc3ccccc23)C[C@@H](OCc2ccc(CO)cc2)O1)N1CCN(Cc2ccccc2)CC1`: the values for the 50% effective concentration (EC50) in test [1] and in test [2] were 0.888 µM (active) and > 60 µM (not active), respectively.

Take `C=CCc1cccc(/C=N/NC(=O)c2ccccc2Br)c1O`: the figures for the EC50 in test [1] and in test [2] were 1.72 µM (active) and 8.77 µM (active), respectively.

Regarding `Cc1c(C(=O)Nc2cccc(Cl)c2)c2ccccn2c1CCc1ccncc1`, the EC50 in test [1] was 1.19 µM (active); in test [2] it was > 30 µM (not active).

As to `COCCCn1c(SCc2ccccc2)nc2cc(OC)c(OC)cc2c1=N`, the EC50 in test [1] was 1.69 µM (active); in test [2] it was 11.5 µM (active).

For the molecule `NC(=S)N/N=C/c1ccc(-n2nncc2-c2ccc(Cl)cc2)cc1`, the EC50 in test [1] was 1.64 µM (active); in test [2] it was > 60 µM (not active).

On to `O=C(CSc1nc(=O)n2ccccc2n1)N1N=C(c2cccs2)CC1c1ccc(F)cc1` (stereo unspecified), for which the EC50 was 1.51 µM (active) in test [1] and > 60 µM (not active) in test [2].

As for `Cc1nn(Cc2ccc(Cl)cc2)c(C)c1NC(=O)CCCn1nc([N+](=O)[O-])c(Cl)c1C`, the EC50 in test [1] is 0.318 µM (active); in test [2] it was > 30 µM (not active).
